These results are taken from patent US8486949B2, “Use of azaperone for improving growth performance” (Elanco Animal Health Ireland Limited, priority 2008, dated 2013).

In data set [1] the test system is weaned pigs. Nature of the data set: Behaviour of the animals per pen (groups 5 and 6: pigs lying down, eating or drinking, hierarchical fights). In kind it is in vivo. As to the method: This study was a controlled parallel study with 4 sequential groups of approximately 250 weaned pigs each. The first and third group were treated with azaperone via the drinking water for 3 consecutive days. The second and fourth group were control groups treated with placebo (plain drinking water). After the completion of these four groups, two additional groups (one treated with azaperone and one control group) were included in the study to investigate more in detail the effect of the azaperone treatment on the behaviour of the pigs. In each of these additional groups, 5 pens of approximately 12 pigs were enclosed.
In order to assess the effect of the azaperone treatment on the behaviour of the animals after weaning, the occurrence of hierarchical fights was followed in groups 1 to 4 and recorded by the Principal Investigator during a period of 1 week after weaning. Every day a behaviour score of 0 to 2 was given to each pen:
In groups 1 to 4, behaviour of the pigs was always scored as normal although hierarchical fighting was reported on the farm. […] These two additional groups (one treated with azaperone and one control group) were closely monitored for behavioural changes. During the first 7 hours after weaning and movement to the nurseries, the occurrence and severity of hierarchical fights, the number of pigs laying down, and the number of pigs eating or drinking, was recorded. […]

For data set [2], the system named is weaned pigs. Nature of the data set: Preclinical study of the effects of azaperone administered via drinking water: body weight per pig. The format is in vivo. As to the method:
Preclinical Study of the Effects of Azaperone Administered Via Drinking Water The study was performed in weaned pigs to investigate the effect of azaperone that was continuously orally administered via drinking water on behaviour, feed conversion, growth and homogeneity of growth. Groups of approximately 250 pigs were enrolled in the study starting from the moment they were weaned. The pigs were housed according to everyday farming conditions in a conventional pig farm. All pigs were housed in similar buildings. Each group was housed in 2 compartments, gilts and barrows were housed in separate compartments. Pigs were kept in pens of approximately 12 individuals each. After weaning, the piglets were housed in continuous artificial light for the first 48 hours. Afterwards, pigs were housed in continuous darkness for the further duration of the study, except during observations (twice a day). During the course of the study, pigs were not vaccinated. A metaphylactic colistine treatment via drinking water was applied in each group starting from the fifth day after weaning. Treatment continued for seven days. Pigs were fed ad libitum. Troughs were filled automatically with a computerized system that records the supplied weight of feed per pen. During the first ten days of the nursery period, pigs were fed a pelleted weaner feed which had also been available to the piglets in the farrowing unit. Between the 10th and 15th day at the nursery, the weaner feed was gradually replaced by grower pellets which have been given until the 35th day. Finally a switch was made between the 35th and the 40th day from grower pellets to starter pellets. Tap water was available during the whole period of the study and was supplied via a water nipple in the feeding trough. The drinking water comprising azaperone was obtained by diluting Stresnil™ injection in water to obtain a concentration of 6 mg azaperone per liter drinking water. A primary dilution was prepared by diluting 90 ml of Stresnil™ 4% injectable solution with tap water to obtain 6 liters of preparation. This primary dilution was linked for 24 hours with an automatic dosing system which continuously diluted the preparation in the drinking water at a rate of 1 to 100. One preparation of the primary dilution was sufficient to treat 600 liters of drinking water which exceeded the anticipated daily consumed volume of water by the pigs in one compartment. The two following days, a new primary dilution was made fresh each morning and linked to the automatic dosing system for 24 hours. This study was a controlled parallel study with 4 sequential groups of approximately 250 weaned pigs each. The first and third group were treated with azaperone via the drinking water for 3 consecutive days. The second and fourth group were control groups treated with placebo (plain drinking water). After the completion of these four groups, two additional groups (one treated with azaperone and one control group) were included in the study to investigate more in detail the effect of the azaperone treatment on the behaviour of the pigs. In each of these additional groups, 5 pens of approximately 12 pigs were enclosed. On day one of the test period, water containing 6 mg azaperone per liter or placebo, was made available. Starting from the fourth day, the drinking water no longer contained azaperone. All pigs followed the normal procedures for further fattening. No pigs were brought to the slaughterhouse during the study (3 days dosing and 39 days follow-up). Body weights were determined for all pigs in groups 1 to 4. The body weight of each individual animal was determined a first time at the start of the study, just before movement to the nursery and a second time at the end of the study, after a period of 42 days in the nursery. […]

For another data set, the system named is pigs. Conditions: cited from earlier work.

Consider `O=C(CCCN1CCN(c2ccccn2)CC1)c1ccc(F)cc1` [azaperone], for which the “number of pigs lying down or eating versus placebo” value in the data set on weaned pigs [1] (groups 5 and 6, first 7 hours after initiation of treatment, 6 mg/liter drinking water) was “no difference”. Moreover, in the data set with weaned pigs [1] (oral via drinking water, 6 mg/liter), the sedative effect result is given as “absence of a sedative effect”. In addition, the “body weight gained during the study” value with weaned pigs [2] (6 mg azaperone per liter drinking water for 3 days, 42 day test period, mean±SD) came out at 16.3 ± 3.31 kg. The “Final BW CoV (coefficient of variation)” value in the data set with weaned pigs [2] (after 42 days in the nursery) is 18%. Also, the “Final BW” value in the data set with weaned pigs [2] (after 42 days in the nursery, 6 mg/liter drinking water for first 3 days) was 23.62 kg. Besides, the “body weight gain CoV (coefficient of variation)” value in the data set on weaned pigs [2] (over 42 days) amounted to 20%. Further, the body weight gain in the data set on weaned pigs [2] (over 42 days, 6 mg/liter drinking water for first 3 days) worked out at 16.34 kg. Besides, the “homogeneity of body weight distribution at the end of the testing period” value in the data set on weaned pigs [2] (versus placebo groups) is “more homogenous body weight distribution”. Besides, the “effect on weight gain, feed consumption or feed efficiency” value in the data set on pigs (intramuscular administration to pigs, Gonyou et al., J. Anim. Sci. 1988) is on record as “did not had significant effect”. Moreover, in the data set with pigs (intramuscular injection to pigs, Blackshaw, Aust. Vet. J. 1981), the “effect in promoting relative growth rate” value was “no effect”. Also, the weight gain result in the data set with pigs (intramuscular injection to pigs, Porter and Slusser, Veterinary Medicine 1985) was “increased weight gain”.
